Holding throughout (assay): NCI-60 cell line screen, 48 h
The subject of test [1] is MDA-N.
The test system of test [2] is UACC-62 melanoma.
In test [3] the test system is OVCAR-4 ovarian.
The subject of test [4] is EKVX NSCLC.
In test [5] the test system is HCT-15 colon.
Test [6] deals with UACC-257 melanoma.
Test [7] has as its system TK-10 renal.
The subject of test [8] is KM12 colon.
In test [9] the test system is MCF7 breast.
The test system of test [10] is M14 melanoma.
The test system of test [11] is CAKI-1 renal.
In test [12] the test system is MDA-MB-231 breast.
Test [13] concerns NCI-H23 lung.
The test system of test [14] is SF-268 CNS.
The test system of test [15] is SNB-19 CNS.
The subject of test [16] is ACHN renal.
In test [17] the test system is DU-145 prostate.
In test [18] the test system is SK-OV-3 ovarian.
Test [19] has as its system A549 NSCLC.

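Test compounds were applied to cells in 96-well plates for 48 hours at 5 doses. TGI denotes the concentration required for complete inhibition of growth.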

Regarding `COC(=O)Cc1c([C@H]2[C@H](CC(=O)OC)c3ccccc3N2S(=O)(=O)c2ccc(C)cc2)[nH]c2ccccc12`, the TGI in [1], in test [2], in test [3], in test [4], in test [5] and in [6] was above 100 µM in each case. Moreover, the TGI in test [7], in test [8], in test [9], in test [10], in test [11] and in test [12] was above 100 µM each time. Also, the TGI in test [13], in [14], in test [15], in [16], in [17] and in test [18] was above 100 µM throughout. For the same molecule, the TGI in test [19] was above 100 µM.
As to `c1ccc(Cn2c(-c3ccc(-c4ccccc4)cc3)cc3ccccc32)cc1`, the TGI in test [1], in test [2], in test [3], in test [4], in test [5] and in [6] was above 100 µM each time. Besides, the TGI in [7], in [8], in [9], in [10], in [11] and in test [12] was above 100 µM throughout. Also, the TGI in [13], in test [14], in [15], in test [16], in test [17] and in [18] was above 100 µM in each case. In addition, in test [19], the TGI was above 100 µM.
For the molecule `CCOC(=O)c1c(N2CCCC2)[nH]c(=O)c(C(c2ccc(Cl)c([N+](=O)[O-])c2)c2c(O)c(C(=O)OCC)c(N3CCCC3)[nH]c2=O)c1O`, the TGI in test [1] is 79.6 µM; in test [2], 86 µM; in test [3], above 100 µM; in test [4], above 100 µM; in test [5], above 100 µM; in [6], above 100 µM. Also, the TGI was 59.2 µM in test [7]; above 100 µM in [8]; above 100 µM in [9]; 42.7 µM in test [10]; 60.6 µM in test [11]; 50.5 µM in test [12]. The TGI in test [13] was 48.9 µM; in test [14], 55.2 µM; in test [15], 49.9 µM; in [16] it was above 100 µM; in test [17], above 100 µM; in test [18], above 100 µM. Further, the TGI in [19] is above 100 µM.
On to `c1ccc2c(c1)c1c3c(c4c(n32)=NCCN4)CCC1`, for which the TGI was 59.3 µM in test [1]; above 100 µM in [2]; above 100 µM in test [3]; above 100 µM in test [4]; above 100 µM in test [5]; above 100 µM in test [6]. The TGI is above 100 µM in [7]; above 100 µM in test [8]; 98.2 µM in test [9]; above 100 µM in test [10]; above 100 µM in [11]; 98.9 µM in test [12]. The TGI in test [13], in test [14], in test [15], in test [16], in [17] and in [18] was above 100 µM each time. The same molecule registered a TGI in test [19] above 100 µM.
For the molecule `O=C1CCC2c3ccccc3NCN12` (centres undefined), the TGI in test [1], in test [2], in [3], in test [4], in test [5] and in test [6] was above 100 µM in each case. The TGI in test [7], in test [8], in test [9], in [10], in test [11] and in [12] was above 100 µM each time. The TGI in test [13], in test [14], in test [15], in test [16], in [17] and in test [18] was above 100 µM throughout. This molecule displayed a TGI in test [19] above 100 µM.
As to `COc1cc2cc3c4c(cc(OC)c(OC)c4c2cc1OC)CCN3C`, the TGI in test [1] was above 50 µM; in test [2], 14.3 µM; in [3] it was 12 µM; in test [4], above 50 µM; in test [5], above 47.8 µM; in test [6], 27.3 µM. For the same molecule, the TGI in [7] was above 23.4 µM; in test [8], above 50 µM; in [9] it was above 36.4 µM; in [10], above 50 µM; in test [11] it was 25.7 µM; in test [12] it was above 44.1 µM. Also, the TGI was above 50 µM in test [13]; above 50 µM in test [14]; above 50 µM in test [15]; 31.7 µM in [16]; 19.8 µM in test [17]; above 50 µM in test [18]. In test [19], this molecule came in with a TGI above 50 µM.
As for `C=CCNC1=C2C[C@@H](C)C[C@H](OC)[C@H](O)[C@@H](C)/C=C(\C)[C@H](OC(N)=O)[C@@H](OC)/C=C\C=C(/C)C(=O)NC(=CC1=O)C2=O`, the TGI in test [1] turned out to be 15 µM; in test [2] it was 4.8 µM; in [3], 26.4 µM; in test [4], 31.4 µM; in test [5], 24.5 µM; in test [6] it was 21.3 µM. The TGI worked out at 48.3 µM in [7]; 0.237 µM in [8]; 16 µM in test [9]; 17 µM in [10]; 38 µM in [11]; 23.6 µM in [12]. Also, the TGI in [13] is 8.3 µM; in test [14], 49.6 µM; in test [15], 62.2 µM; in test [16] it was 32.2 µM; in test [17], 7.33 µM; in test [18], 58.8 µM. In addition, the TGI in test [19] turned out to be 17.8 µM.
For `CCOC(=O)CCC(NC(=O)c1ccc(Oc2nc3c(N)cc(C(F)(F)F)cc3nc2-c2ccccc2)cc1)C(=O)OCC` (centres undefined), the TGI in [1] was above 100 µM; in test [2] it was above 100 µM; in test [3], above 100 µM; in [4], above 100 µM; in [5] it was above 100 µM; in test [6] it was above 31.6 µM. The TGI in test [7] is above 100 µM; in test [8], above 100 µM; in [9], above 100 µM; in test [10] it was above 100 µM; in test [11], 8.91 µM; in test [12], above 96.1 µM. Further, the TGI in test [13] was above 59.3 µM; in test [14] it was above 71.2 µM; in test [15], above 80.9 µM; in test [16], above 69.6 µM; in test [17], above 64.8 µM; in test [18], above 58.6 µM. Moreover, the TGI in test [19] was above 100 µM.
`CC/C(Cl)=N\OC(=O)Nc1ccc(OC)c(C)c1`: the TGI was determined as 41 µM in [1]; 28.9 µM in test [2]; 36.5 µM in test [3]; 10.1 µM in [4]; 34.5 µM in [5]; 37 µM in test [6]. Further, the TGI in test [7] is 41.7 µM; in [8] it was above 60 µM; in [9], above 64.3 µM; in test [10], 44.1 µM; in [11], 1.84 µM; in [12], above 88.6 µM. For the same molecule, the TGI in test [13] is 36.5 µM; in test [14], above 77.1 µM; in test [15], above 100 µM; in test [16], 21.5 µM; in test [17], above 100 µM; in test [18], above 100 µM. Moreover, in test [19], the TGI was above 71.4 µM.
`Cc1ccc(S(=O)(=O)N/N=C2\CCCCCCCCCCC2CN(C)C)cc1` (centres undefined): the TGI in test [1] was 32.8 µM; in test [2], 32.3 µM; in [3] it was 68.3 µM; in test [4] it was 70 µM; in [5], 29 µM; in test [6], 28.7 µM. Moreover, the TGI in test [7] amounted to 27.6 µM; in test [8], 31.8 µM; in test [9], 31 µM; in test [10] it was 31.1 µM; in test [11], 50.4 µM; in test [12], 34 µM. The TGI in [13] was 55.8 µM; in test [14] it was 54.3 µM; in test [15] it was 30.4 µM; in [16] it was 40.2 µM; in test [17], 34.8 µM; in test [18] it was 36 µM. The molecule also yielded a TGI in test [19] of 41 µM.
For the molecule `C=CCN1C[C@H](C)N([C@H](c2ccc(C(=O)N(CC)CC)cc2)c2cccc(OC)c2)C[C@H]1C`, the TGI in test [1] is above 100 µM; in test [2], above 100 µM; in test [3], above 100 µM; in test [4] it was above 100 µM; in test [5] it was above 100 µM; in test [6] it was 52.3 µM. The TGI in test [7], in test [8], in test [9], in test [10], in [11] and in test [12] was above 100 µM in each case. In addition, the TGI in test [13], in test [14], in test [15], in test [16], in test [17] and in test [18] was above 100 µM throughout. In test [19], this molecule had a TGI above 100 µM.

The values above are taken from PubChem BioAssay (NCI).
